One experiment has as its system SARS-CoV-2 Delta variant. It is filed as in vivo, mice. The note with it: 100 and 300 mg/kg daily oral gavage.
Experiment [1] has as its system SARS-CoV-2 Omicron variant. It is filed as in vivo, mice. The note with it: 100 and 300 mg/kg daily oral gavage, 7, 14, 21 days (FIG. 15B).

Structures are written as SMILES.

For the compound `Cn1c(C(=O)N2CC(F)(F)C2)cc2ccc(-c3nccc(Nc4ccc(-c5cn[nH]c5)cc4)n3)cc21` [Compound 2, (6-(4-((4-(1H-pyrazol-4-yl)phenyl)amino)pyrimidin-2-yl)-1-methyl-1H-indol-2-yl)(3,3-difluoroazetidin-1-yl)methanone], the “viral load in the lung” value (with SARS-CoV-2 Delta variant; in experiment [1]) was “effect was observed” each time.

Source of the values: patent publication US20260007673A1, “ROCK2 INHIBITORS FOR THE TREATMENT OF VIRAL INFECTIONS” (GRAVITON BIOSCIENCE BV, priority 2022, published 2026).
